Data published in patent US20060286047A1, “Methods for determining the sequence of a peptide motif having affinity for a substrate” (priority 2005, published 2006).

Key:
[1] = ELISA assay of peptide motif binding to bleached hair; parameters: species or system human; Binding Activity % Relative to Control: concentration or dose not given beside the values; settings: for binding activity to hair compared to the positive control peptide (in words): bleached hair ELISA, summary of Table 7; for Binding Activity % Relative to Control: bleached human hair, biotinylated peptide, streptavidin-HRP/TMB, A450, relative to positive control SEQ ID NO:124
Protocol: The hair samples used were 6-inch (15.2 cm) medium brown human hairs obtained from International Hair Importers and Products (Bellerose, N.Y.). The hairs were placed in 90% isopropanol for 30 min at room temperature and then washed 5 times for 10 min each with deionized water. The hairs were air-dried overnight at room temperature. To prepare the bleached hair samples, the air-dried medium brown human hairs were placed in 6% H2O2, which was adjusted to pH 10.2 with ammonium hydroxide, for 10 min at room temperature and then washed 5 times for 10 min each with deionized water. The hairs were air-dried overnight at room temperature.
Ten hair-binding peptide motifs from Table 6 were selected for testing of their hair-binding activity. The ten peptides were synthesized by SynPep (Dublin, Calif.). […] The control peptide had the sequence TPPELLHGDPRS, given as SEQ ID NO:124. The peptides were biotinylated by adding a biotinylated lysine residue at the C-terminus of the amino acid binding sequences for detection purposes and an amidated cysteine was added to the C-terminus of the sequence.
Bleached hair samples were prepared and placed into wells of a custom 24-well biopanning apparatus, as described in Example 1. The hair was blocked with blocking buffer (SuperBlock™ from Pierce Biotechnology, Inc., Rockford, Ill.) at room temperature for 1 h, followed by six washes with TBST-0.5%, 2 min each, at room temperature. Various concentrations of biotinylated, binding peptide were added to each well, incubated for 15 min at 37° C., and washed six times with TBST-0.5%, 2 min each, at room temperature. Then, streptavidin-horseradish peroxidase (HRP) conjugate (Pierce Biotechnology, Inc.) was added to each well (1.0 μg per well), and incubated for 1 h at room temperature. After the incubation, the conjugate solution was removed and the wells were washed six times with TBST-0.5%, 2 min each, at room temperature. TMB substrate (200 μL) (Pierce Biotechnology, Inc.) was added to each well and the color was allowed to develop for between 5 to 30 min, typically for 10 min, at room temperature. Then, stop solution (200 μL of 2 M H2SO4) was added to each well and the solutions were transferred to a 96-well plate and the A450 was measured using a microplate spectrophotometer (Molecular Devices, Sunnyvale, Calif.). The resulting absorbance values, were used to calculate the binding activity of each hair-binding peptide motif relative to the positive control sequence.

[2] = control peptide as identified by Huang et al.; cited from earlier work

Substance	Binding Activity % Relative to Control [1] [%]	binding activity to hair compared to the positive control peptide (in words) [1]	affinity for hair (in words) [2]
95 (YSPIK; Hair-binding peptide motif) [compound 95]	1.9	low binding activity	
120 (THPLSNTT; Hair-binding peptide motif) [compound 120]	88.3		
98 (RPPLD; Hair-binding peptide motif) [compound 98]	90.3	comparable to or greater than that of the positive control peptide	
97 (FPPVP; Hair-binding peptide motif) [compound 97]	81.5		
123 (RLLRLLRLLRLL; Hair-binding peptide motif) [compound 123]	127.1	comparable to or greater than that of the positive control peptide	

Second part, led by results:

Binding Activity % Relative to Control [1] [%]	Substance	binding activity to hair compared to the positive control peptide (in words) [1]	affinity for hair (in words) [2]
4.4	121 (SPIKRPPLS; Hair-binding peptide motif) [compound 121]	low binding activity	
53.0	90 (PLSTY; Hair-binding peptide motif) [compound 90]		
100.0	124 (TPPELLHGDPRS; Control hair-binding peptide) [compound 124]		high affinity for hair
86.6	92 (TLGQA; Hair-binding peptide motif) [compound 92]		
94.5	119 (SNTTPSPSP; Hair-binding peptide motif) [compound 119]	comparable to or greater than that of the positive control peptide	
84.6	99 (QPLSV; Hair-binding peptide motif) [compound 99]		
